In patent US20260345641A1, “COMPOSITIONS AND USES THEREOF” (Algorae Pharmaceuticals Ltd, priority 2023, published 2026):

System: SH-SY5Y cells
Experiment: Gene expression analysis by RNA sequencing in the presence of Aβ
Assay type: cell-based, human
Conditions: 5 μM, with Aβ
Description: The SH-S5Y5 neuroblastoma cell line was used for pre-clinical analysis. The SH-S5Y5 cell line is commonly used as a model for neurodegenerative disorders as the cells can be converted to various types of functional neurons by the addition of specific compounds (see, e.g., Xicoy et al., 2017, Molecular Neurodegeneration, 12: 10). In addition, the SH-S5Y5 cell line has been used widely in experimental neurological studies, including analysis of neuronal differentiation, metabolism, and function related to neurodegenerative processes, neurotoxicity and neuroprotection (see, e.g., Datki et al., 2003, Brain Research Bulletin, 62(3): 22-229; and Xie et al., 2010, Chinese Medical Journal, 123(8): 1086-1092).
Total RNA was isolated from cells using TRIzol in accordance with the manufacturer's instructions (Invitrogen, Carlsbad, CA, USA). RNA concentration and quality was assessed using a NanoDrop spectrophotometer. Only samples with a 260/280 ratio of ≥1.8 were used for further analysis.
Messenger RNA (mRNA) was purified from total RNA using poly-T oligo attached magnetic beads. After fragmentation, cDNA synthesis was performed in accordance with the manufacturer's instructions (Illumina, San Diego, CA, USA) to generate a directional and non-directional library. Libraries were checked with Qubit, real-time PCR was performed for quantification, and size distribution detection was performed using the Bioanalyzer. Quantified libraries were pooled and sequenced on an Illumina platform, according to the manufacturer's instructions.
Raw reads were filtered and mapped to human reference genome (GRCh38/hg38) using HISAT2. Differential gene expression analysis was performed using R Package DEG seq2. […] Manual annotation of genes previously associated with specific neurodegenerative disorders and dementias was performed following a text mining analysis.

COc1cc2c(cc1OC)C(=O)C(CC1CCN(Cc3ccccc3)CC1)C2 (stereo not shown) [Donepezil]
MEG3 gene expression (control 0.007, P 0.038): 0.008 | SAMD12 gene expression (control 0.011, P 0.052): 0.002 | TNF gene expression (control 0.032, P 0.046): 0.026 | ATXN7 gene expression (control 0.042, P 0.014): 0.150 | PRICKLE2 gene expression (control 0.060, P 0.007): 0.085 | IRF4 gene expression (control 0.076, P 0.050): 0.010 | NRXN1 gene expression (control 0.085, P 0.007): 0.125 | DNAH8 gene expression (control 0.090, P 0.017): 0.009 | MME gene expression (control 0.091, P 0.004): 0.240 | CLN3 gene expression (control 0.092, P 0.051): 0.093 | DMD gene expression (control 0.166, P 0.017): 0.352 | PPP2R2B gene expression (control 0.179, P 0.056): 0.146 | PRSS23 gene expression (control 0.196, P 0.022): 0.193 | ACE gene expression (control 0.209, P 0.004): 0.644 | A2M gene expression (control 0.242, P 0.006): 0.122 | TCIRG1 gene expression (control 0.302, P 0.023): 0.340 | SLC1A1 gene expression (control 0.314, P 0.003): 0.482 | NTNG1 gene expression (control 0.327, P 0.009): 0.249 | NTRK2 gene expression (control 0.329, P 0.015): 0.700 | PIH1D2 gene expression (control 0.334, P 0.023): 0.137 | TUBA4A gene expression (control 0.334, P 0.053): 0.432 | FGFR2 gene expression (control 0.353, P 0.053): 0.228 | PDE11A gene expression (control 0.366, P 0.020): 0.416 | TUNAR gene expression (control 0.382, P 0.009): 0.441 | RETREG1 gene expression (control 0.386, P 0.001): 0.774 | SORL1 gene expression (control 0.455, P 0.009): 0.683 | DPY19L2P2 gene expression (control 0.469, P 0.040): 0.560 | TRIM9 gene expression (control 0.529, P 0.008): 1.021 | MATR3 gene expression (control 0.559, P 0.001): 0.511 | SYCE2 gene expression (control 0.567, P 0.049): 0.604 | PLA2G6 gene expression (control 0.634, P 0.016): 0.830 | DEPDC5 gene expression (control 0.656, P 0.020): 0.683 | CLN5 gene expression (control 0.695, P 0.004): 0.652 | SLC9B1 gene expression (control 0.735, P 0.053): 0.713 | PLAU gene expression (control 0.799, P 0.005): 1.790 | ATXN1 gene expression (control 0.851, P 0.002): 1.152 | IRAK1BP1 gene expression (control 0.866, P 0.030): 0.848 | PRPH gene expression (control 0.870, P 0.011): 1.132 | FHIT gene expression (control 0.882, P 0.033): 1.086 | CFAP43 gene expression (control 0.931, P 0.049): 0.636 | TMEM63A gene expression (control 0.954, P 0.055): 1.141 | LRRC56 gene expression (control 0.982, P 0.002): 1.129 | PARD3B gene expression (control 0.986, P 0.002): 1.168 | ADCY5 gene expression (control 1.228, P 0.036): 1.662 | DISC1 gene expression (control 1.302, P 0.033): 1.242 | KCNT1 gene expression (control 1.355, P 0.002): 1.707 | GAN gene expression (control 1.529, P 0.018): 1.495 | DPP10 gene expression (control 1.590, P 0.009): 1.562 | CHRNB4 gene expression (control 1.624, P 0.018): 2.920 | MEF2C gene expression (control 1.668, P 0.044): 1.624 | PACRG gene expression (control 1.720, P 0.027): 1.797 | CDKL5 gene expression (control 1.735, P 0.001): 2.077 | SIL1 gene expression (control 1.736, P 0.021): 1.886 | PDLIM3 gene expression (control 1.777, P 0.026): 3.231 | MT-TH gene expression (control 1.782, P 0.047): 0.388 | MT-TD gene expression (control 1.849, P 0.032): 2.334 | MMACHC gene expression (control 1.874, P 0.018): 1.731 | ZFYVE26 gene expression (control 1.909, P 0.032): 1.930 | TMLHE gene expression (control 1.915, P 0.004): 2.188 | MAPT gene expression (control 1.915, P 0.007): 2.615 | MSRA gene expression (control 1.969, P 0.027): 1.709 | COQ2 gene expression (control 1.970, P 0.055): 1.406 | PINK1-AS gene expression (control 1.974, P 0.029): 1.689 | DLG2 gene expression (control 1.977, P 0.041): 2.816 | FZD3 gene expression (control 1.990, P 0.010): 2.276 | KATNAL2 gene expression (control 2.005, P 0.000): 2.056 | ALMS1 gene expression (control 2.170, P 0.003): 2.220 | HOTAIR gene expression (control 2.219, P 0.008): 1.982 | SETD1B gene expression (control 2.501, P 0.005): 3.039 | DRD2 gene expression (control 2.532, P 0.031): 4.790 | SMARCA2 gene expression (control 2.546, P 0.044): 2.658 | MFSD8 gene expression (control 2.553, P 0.038): 2.381 | BDNF gene expression (control 2.554, P 0.014): 0.255 | ABCA7 gene expression (control 2.607, P 0.032): 2.087 | FSD1L gene expression (control 2.639, P 0.002): 2.451 | ROGDI gene expression (control 2.747, P 0.055): 3.041 | SPG7 gene expression (control 2.790, P 0.011): 2.471 | MT-TW gene expression (control 2.846, P 0.019): 2.620 | ATP1A3 gene expression (control 2.847, P 0.021): 3.739 | ATL1 gene expression (control 2.891, P 0.027): 3.208 | GM2A gene expression (control 2.985, P 0.005): 5.621 | LYST gene expression (control 3.000, P 0.053): 2.468 | APOL2 gene expression (control 3.111, P 0.054): 3.390 | DCX gene expression (control 3.114, P 0.003): 3.488 | IFT74 gene expression (control 3.453, P 0.032): 4.207 | CLN8 gene expression (control 3.580, P 0.014): 2.847 | RBM12 gene expression (control 3.638, P 0.000): 3.884 | PRICKLE1 gene expression (control 3.757, P 0.002): 3.333 | DPH1 gene expression (control 3.762, P 0.040): 3.962 | TRAPPC9 gene expression (control 3.776, P 0.021): 4.781 | EIF2B3 gene expression (control 3.828, P 0.043): 3.200 | PDE10A gene expression (control 3.855, P 0.030): 3.147 | TRAPPC2 gene expression (control 3.872, P 0.053): 4.012 | C9orf72 gene expression (control 3.921, P 0.001): 8.663 | TFEB gene expression (control 4.181, P 0.001): 2.618 | PODXL gene expression (control 4.194, P 0.011): 4.847 | ATP6V0A2 gene expression (control 4.281, P 0.017): 4.607 | TTC21B gene expression (control 4.351, P 0.026): 4.248 | VPS13D gene expression (control 4.370, P 0.001): 4.565 | PIGQ gene expression (control 4.438, P 0.008): 4.983 | PTPRM gene expression (control 4.505, P 0.000): 4.710 | RHOBTB2 gene expression (control 4.522, P 0.012): 5.349 | MRE11 gene expression (control 4.546, P 0.036): 4.436 | EHMT1 gene expression (control 4.566, P 0.010): 4.445 | CYLD gene expression (control 4.607, P 0.036): 3.887 | PRDM8 gene expression (control 4.779, P 0.013): 3.461 | RNF213 gene expression (control 4.801, P 0.002): 5.276 | USP8 gene expression (control 4.840, P 0.047): 3.827 | LIG3 gene expression (control 4.935, P 0.007): 5.232 | MIAT gene expression (control 5.041, P 0.014): 6.814 | JAM2 gene expression (control 5.256, P 0.040): 4.131 | PSEN2 gene expression (control 5.259, P 0.051): 5.579 | LMBRD1 gene expression (control 5.367, P 0.022): 5.309 | NPC1 gene expression (control 5.515, P 0.001): 6.062 | OPA1 gene expression (control 5.517, P 0.001): 9.622 | VAPB gene expression (control 5.611, P 0.005): 5.235 | ANXA11 gene expression (control 5.661, P 0.025): 6.974 | MT-TI gene expression (control 5.685, P 0.038): 4.404 | GOSR2 gene expression (control 5.846, P 0.000): 5.640 | LDLR gene expression (control 5.953, P 0.003): 7.563 | DDHD2 gene expression (control 6.006, P 0.000): 6.144 | SREBF1 gene expression (control 6.248, P 0.024): 8.317 | SLC25A24 gene expression (control 6.258, P 0.036): 5.685 | CREB1 gene expression (control 6.333, P 0.006): 7.340 | FIG4 gene expression (control 6.430, P 0.051): 6.116 | BLMH gene expression (control 6.516, P 0.013): 6.896 | APTX gene expression (control 6.525, P 0.011): 6.767 | TPP1 gene expression (control 6.541, P 0.009): 7.171 | ADAM10 gene expression (control 6.563, P 0.019): 5.824 | MT-TA gene expression (control 6.758, P 0.027): 2.804 | RAB33A gene expression (control 6.793, P 0.003): 6.922 | MT-TC gene expression (control 6.838, P 0.052): 10.995 | MECP2 gene expression (control 6.880, P 0.033): 5.530 | SPAST gene expression (control 6.944, P 0.053): 5.978 | TMEM106B gene expression (control 7.108, P 0.005): 6.957 | CRAT gene expression (control 7.227, P 0.031): 9.692 | CSTB gene expression (control 7.261, P 0.008): 9.549 | IRF6 gene expression (control 7.365, P 0.000): 5.933 | TRPM7 gene expression (control 7.393, P 0.030): 5.958 | OTUD6B gene expression (control 7.405, P 0.048): 6.534 | MAPK8 gene expression (control 7.482, P 0.022): 9.392 | POLR1C gene expression (control 7.525, P 0.034): 6.234 | CHCHD10 gene expression (control 7.586, P 0.010): 11.163 | ATL3 gene expression (control 7.656, P 0.030): 6.616 | WDR37 gene expression (control 7.709, P 0.023): 7.870
